This is an account of results in patent US7375109B2, “Glycine-substituted thieno[2,3-d]pyrimidines with combined LH and FSH agonistic activity” (N.V. Organon, priority 2001, dated 2008).

pEC50: −log10 of the molar value.

Experiment [1] has as its target T1, human LH receptor (Homo sapiens, UniProt P22888).
T1 construct: expressed in transfected cells; host or cells: Chinese Hamster Ovary (CHO) cells, stably transfected; cotransfected with CRE-luciferase reporter
Put plainly: CHO-LH in vitro bioactivity (CRE-luciferase reporter). Format: cell-based. As to conditions: CHO cells stably transfected with human LH receptor. Here is the method: (§1) It has been shown that compounds of the above mentioned formula I show agonistic LH and FSH activity. […] Typically the FSH activity ranges from an activity of about 0.1% of the LH agonist stimulation to about 10% of the LH agonist stimulation.
(§2) LH agonistic activity of compounds were tested in Chinese Hamster Ovary (CHO) cells stably transfected with the human LH receptor and cotransfected with a cAMP responsive element (CRE)/promotor directing the expression of a firefly luciferase reporter gene. Binding of ligand to the Gs-coupled LH receptor will result in an increase of cAMP, which in turn will induce an increased transactivation of the luciferase reporter construct. The luciferase signal was quantified using a luminescence counter. For test compounds, EC50 values (concentration of test compound causing half-maximal (50%) stimulation) were calculated. For that purpose the software program GraphPad PRISM, version 3.0 (GraphPad software Inc., San Diego) was used.

Experiment [2] has as its target T2, human FSH receptor (Homo sapiens, UniProt P23945).
T2 construct: expressed in transfected cells; host or cells: CHO cells transfected with human FSH receptor and CRE-luciferase reporter
T2 sequence (P23945 18-695): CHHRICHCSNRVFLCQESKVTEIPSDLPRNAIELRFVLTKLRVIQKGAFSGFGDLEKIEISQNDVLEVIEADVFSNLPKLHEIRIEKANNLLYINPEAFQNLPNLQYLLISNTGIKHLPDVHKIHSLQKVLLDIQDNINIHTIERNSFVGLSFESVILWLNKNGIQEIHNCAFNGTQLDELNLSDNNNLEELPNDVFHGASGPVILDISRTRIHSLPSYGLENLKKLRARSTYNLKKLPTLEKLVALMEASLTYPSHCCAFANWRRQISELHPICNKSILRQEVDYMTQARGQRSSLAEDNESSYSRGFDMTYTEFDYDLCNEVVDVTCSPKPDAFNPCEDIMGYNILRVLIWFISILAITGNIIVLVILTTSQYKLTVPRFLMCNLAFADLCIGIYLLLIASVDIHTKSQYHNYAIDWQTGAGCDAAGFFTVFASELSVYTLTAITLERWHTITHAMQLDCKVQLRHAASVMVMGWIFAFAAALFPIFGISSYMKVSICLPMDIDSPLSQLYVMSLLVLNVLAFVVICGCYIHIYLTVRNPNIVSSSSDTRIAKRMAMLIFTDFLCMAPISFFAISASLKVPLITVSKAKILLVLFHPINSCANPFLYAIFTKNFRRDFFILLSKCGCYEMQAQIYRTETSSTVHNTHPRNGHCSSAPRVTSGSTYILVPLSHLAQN
Description: CHO-FSH in vitro bioactivity (CRE-luciferase reporter). The experiment is classed as cell-based. The settings on record: CHO cells transfected with human FSH receptor and luciferase reporter gene. Here is the method:
as §1, §2
In a similar way FSH agonistic activity of compounds were tested in CHO cells transfected with the luciferase reporter gene and the human FSH receptor.

In experiment [3] the test system is immature female mice. Put plainly: In vivo bioactivity: ovulation induction in immature mice. The settings on record: immature female mice primed with urinary FSH (Humegon 12.5 IU/animal); 50 mg/kg about 48 hours later; killed 24 hours after treatment. Here is the method:
To measure LH in vivo activity of compounds, ovulation induction in immature mice can be studied. In this assay immature female mice are primed with urinary FSH and approximately 48 hours later treated with a LH agonistic compound. The animals are killed after LH agonist treatment and the number of ova in the oviduct is microscopically assessed.
To measure in vivo activity of LH/FSH receptor agonistic compounds ovulation induction in immature mice were studied. In this assay immature female mice were primed with urinary FSH (Humegon 12.5 IU/animal). Approximately 48 hours later the animals were treated with a LH/FSH agonistic compound, the preparation of which is described in examples 1, 4, 9 and 17, at a dose-level of 50 mg/kg. The animals were killed 24 hours after LH/FSH agonist treatment and the number of ova in the oviduct was microscopically assessed. On average 10-15 animals were tested. The mean number of ova amounted 8 with the exception of the compound of example 17 (which was 0.4).

T1 sequence (P22888 27-699): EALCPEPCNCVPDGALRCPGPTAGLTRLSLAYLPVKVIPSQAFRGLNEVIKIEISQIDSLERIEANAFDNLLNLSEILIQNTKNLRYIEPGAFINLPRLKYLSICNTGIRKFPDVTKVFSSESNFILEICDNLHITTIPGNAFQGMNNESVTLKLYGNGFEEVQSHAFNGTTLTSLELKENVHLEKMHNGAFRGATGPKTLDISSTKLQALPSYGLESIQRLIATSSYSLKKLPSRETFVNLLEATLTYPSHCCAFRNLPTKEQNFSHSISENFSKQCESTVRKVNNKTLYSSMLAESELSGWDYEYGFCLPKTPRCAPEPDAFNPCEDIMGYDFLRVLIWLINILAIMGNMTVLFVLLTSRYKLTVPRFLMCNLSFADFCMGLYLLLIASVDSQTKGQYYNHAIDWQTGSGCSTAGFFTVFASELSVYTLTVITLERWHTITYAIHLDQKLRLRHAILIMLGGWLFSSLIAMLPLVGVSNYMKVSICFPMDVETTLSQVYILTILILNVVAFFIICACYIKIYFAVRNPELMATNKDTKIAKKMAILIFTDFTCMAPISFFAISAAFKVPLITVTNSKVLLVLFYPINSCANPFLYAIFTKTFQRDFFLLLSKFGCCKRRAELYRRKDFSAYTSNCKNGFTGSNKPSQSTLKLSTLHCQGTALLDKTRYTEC

On to `CSc1nc(-c2cccc(NC(=O)CN(C)CCO)c2)c2c(N)c(C(=O)NC(C)(C)C)sc2n1` [Example 1, tert-Butyl 5-amino-2-methylthio-4-(3-((N-methyl-N-(2-hydroxyethyl)-glycinyl)-amino)-phenyl)-thieno[2,3-d]pyrimidine-6-carboxamide], for which the negative-log EC50 (pEC50) is 8.56 in experiment [1] and 7.24 in experiment [2]. In addition, in experiment [3], the “mean number of ova in the oviduct” value was found to be 8.
In the same order, the values of `CCN(CCOC)CC(=O)Nc1cccc(-c2nc(SC)nc3sc(C(=O)NC(C)(C)C)c(N)c23)c1` [Example 4, tert-Butyl 5-amino-2-methylthio-4-(3-((N-ethyl-N-(2-methoxyethyl)-glycinyl)-amino)-phenyl)-thieno[2,3-d]pyrimidine-6-carboxamide] are 8.15, 7.00 and 8.
The matching figures for `CCN(CCO)CC(=O)Nc1cccc(-c2nc(-c3ccccc3)nc3sc(C(=O)NC(C)(C)C)c(N)c23)c1` [Example 9, tert-Butyl 5-amino-2-phenyl-4-(3-((N-ethyl-N-(2-hydroxyethyl)-glycinyl)-amino)-phenyl)-thieno[2,3-d]pyrimidine-6-carboxamide]: 8.32, 6.22 and 8.
In the same order, the values of `CCNc1nc(-c2cccc(NC(=O)CN(CC)CCOC)c2)c2c(N)c(C(=O)NC(C)(C)C)sc2n1` [Example 17, tert-Butyl 5-amino-2-ethylamino-4-(3-((N-ethyl-N-(2-methoxyethyl)-glycinyl)-amino)-phenyl)-thieno[2,3-d]pyrimidine-6-carboxamide] are 7.98, 5.90 and 0.4.
